{"source": "patent US8354225B1", "about": "“Amplification of oligonucleotides containing non-standard nucleobases” (priority 2004, dated 2013)", "key": {"[1]": {"conditions": "cited from earlier work"}, "[2]": {"test_system": "d(puADA) in the template (T3)", "test": "Paused-extension screen of polymerases", "format": "biochemical", "conditions": "template T3, primer P3, dNTPs, 72° C., 15 seconds", "procedure": "FIG. 6. Use of Taq and DeepVent (DV) exo^+ polymerases as sequencing tools. Both polymerases were incubated with template T3, primer P3, and dNTPs.P=primer alone, 19 nts in length. […] Deep Vent exo appears to be degrading the primer, and perhaps the product as well.\nRadiolabeled primer P3 (1 pmol) was mixed with template T3 (2 pmol), Thermopol buffer (1.5 μL, 10×), dATP, dCTP, dTTP, dGTP (final conc. 10 μM each), and water to a final volume of 14 μL. The mixture was heated to 95° C. for 10 min. and allowed to cool to ambient for 1 hour. The respective polymerase (Taq, Vent, Deep Vent, Vent exo^−, or Deep Vent exo−) was added (1 μL, 2 U/μL) and the reaction incubated at 72° C. for 15 seconds. The reaction was quenched with 20 mM EDTA in PAGE loading buffer (15 μL) and subsequently analyzed by electrophoresis on a 20% PAGE gel. The gel was analyzed using the MolecularImager software."}}, "data": [{"compound": "O=c1[nH]c(=O)c2[nH]cnc2[nH]1", "note": "[pu(ADA), xanthine]", "values": [{"measurement": "pKa of the heterocycle (acid)", "setting": "[1]; free heterocycle", "value": "ca. 5.7"}]}, {"compound": "Nc1ccnc(N)n1", "note": "[py(DAD), 2,4-diaminopyrimidine]", "values": [{"measurement": "pKa of the conjugate acid", "setting": "[1]; protonated heterocycle", "value": "≈ 6.7"}]}, {"compound": "Taq polymerase: Taq polymerase used as sequencing tool", "values": [{"measurement": "elongation upon encountering dX / d(puADA) in the template", "setting": "[2]", "value": "terminates the elongation of a primer"}, {"measurement": "elongation upon encountering dX / d(puADA) in the template", "setting": "[2]; listed as Taq", "value": "abort elongation"}]}]}
